Results from US6808877B2, “Ligands for FPR class receptors that induce a host immune response to a pathogen or inhibit HIV infection” (priority 2000, dated 2004).
Where no end group is shown, it is not given here.

Tests used:
FPRL1(LXA4R) [1] = molecular target: T1, FPRL1(LXA4R) (Homo sapiens, UniProt P25090); conditions: CHO cells transfected with FPRL1(LXA4R); cited from earlier work
T1 construct: host or cells: CHO cells
T1 sequence (P25090 1-351): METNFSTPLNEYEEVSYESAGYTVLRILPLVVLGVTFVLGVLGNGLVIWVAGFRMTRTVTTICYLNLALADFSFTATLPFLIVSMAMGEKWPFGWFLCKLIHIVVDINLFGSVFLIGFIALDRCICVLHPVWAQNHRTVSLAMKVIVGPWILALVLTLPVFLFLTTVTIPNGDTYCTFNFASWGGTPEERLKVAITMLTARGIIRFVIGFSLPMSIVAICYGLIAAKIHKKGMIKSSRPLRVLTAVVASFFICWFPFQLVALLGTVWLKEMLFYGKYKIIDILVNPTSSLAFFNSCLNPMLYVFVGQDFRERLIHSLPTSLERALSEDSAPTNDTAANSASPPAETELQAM

FPRL1(LXA4R) [2] = molecular target: T1, FPRL1(LXA4R); conditions: CHO cells transfected with FPRL1(LXA4R); cited from earlier work; remark: listed apart in the source
FPRL1 [3] = molecular target: T2, FPRL1 (Homo sapiens, UniProt P25090); assay: 3H-fMLP binding to FPRL1/293 cells
T2 construct: expressed in transfected cells; host or cells: HEK 293
T2 sequence (P25090 1-351): T1 sequence (P25090 1-351)
Experimental: The cells were then washed with ice-cold PBS (phosphate buffered saline) and filtered onto Whatman discs. The radioactivity associated with the cells was measured with a β counter.
The samples were incubated under constant rotation for 30 minutes at 37° C. After incubation, the samples were filtered onto Whatman GF/C discs (Whatman International Ltd., Kent, UK) on a 12-well manifold followed by extensive washing with ice-cold phosphate-buffered saline (PBS). The discs were air-dried at 65° C., submerged in liquid scintilation cocktail, and counted for β emision.

human neutrophils = conditions: N-formylated or N-acetylated; cited from earlier work
FPR = molecular target: T3, FPR (Homo sapiens, UniProt P21462); assay: Migration of ETFR cells; format: cell-based; conditions: ETFR cells
T3 construct: H. Ali and R. Snyderman (Duke University); host or cells: RBL-2H3 rat basophilic leukemia cells
T3 sequence (P21462 1-350): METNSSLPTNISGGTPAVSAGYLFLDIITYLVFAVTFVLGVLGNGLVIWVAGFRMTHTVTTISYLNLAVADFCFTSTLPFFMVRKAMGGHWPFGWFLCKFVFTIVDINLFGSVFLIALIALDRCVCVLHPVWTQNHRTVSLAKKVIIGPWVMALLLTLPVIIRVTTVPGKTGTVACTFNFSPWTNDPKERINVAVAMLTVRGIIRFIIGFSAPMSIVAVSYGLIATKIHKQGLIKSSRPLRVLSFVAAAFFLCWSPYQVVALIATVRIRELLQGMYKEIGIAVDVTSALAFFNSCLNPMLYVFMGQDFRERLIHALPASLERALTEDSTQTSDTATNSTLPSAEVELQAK

FPRL1 [4] = molecular target: T2, FPRL1; format: cell-based; conditions: FPRL1/293 cells; 100 ng/ml, 37° C., 30 min
monocytes = assay: Monocyte chemotaxis, 48-well micro-chemotaxis chamber; format: cell-based, human; conditions: 37° C., 30 min

In the case of `CCCCC[C@H](O)/C=C/C=C\C=C\C=C\[C@@H](O)[C@@H](O)CCCC(=O)O` [LXA4, lipoxin A4], the binding affinity (FPRL1(LXA4R) [1]) is listed as “high affinity” and the “GTPase activity and release of esterified arachidonate” value (FPRL1(LXA4R) [2]) is listed as “increased GTPase activity and the release of esterified arachidonate”.
With `CSCC[C@H](NC=O)C(=O)N[C@@H](CC(C)C)C(=O)N[C@@H](Cc1ccccc1)C(=O)O` [^3H-fMLP] the binding to cells (FPRL1 [3]) was “did not significantly bind”.
For “Met-Ile-Leu-Phe-Phe-OH (MILFF-OH) [ID; No. 2]”, the “potency in the induction of Ca2+ flux relative to fMLP” value (human neutrophils) is listed as “more potent than parental fMLP”.
With pertussis toxin the “W peptide induced migration after pretreatment of the cells” value (FPR) was “inhibited”, the “W peptide induced migration after pretreatment of the cells” value (FPRL1 [4]) was “inhibited” and the “chemotaxis response to V3 peptide after preincubation of the cells” value (monocytes; human phagocytes, 100 ng/ml) was “inhibited”. The “migration in response to W peptide after pretreatment of the cells” value (monocytes; phagocytes, 100 ng/ml toxin) was “completely inhibited”.
